The source of these data is patent publication US20070259435A1, “Intravenous Drug Administration and Blood Sampling Model in the Awake Rat” (priority 2004, published 2007).

The nature of data set [1]: in vivo. The following applies: male, Sprague-Dawley, rat, po, 5 mg/kg, single oral 5 mg/kg, multiple sampling. An excerpt:
(§1) Male SPF Sprague-Dawley rats (200-300 g, Charles River, Germany) were used throughout the study. Animals were allowed to acclimatize for one week prior to each part of the study. Tap water and food were available ad libitum.
For multiple blood sampling via the tail vein the animals were placed in a rodent cylindrical restrainer developed by the Scientific Instrument Division (Johnson & Johnson, Pharmaceutical Research and Development, division of Janssen Pharmaceutica). The rat's tail was warmed using an infra red lamp to facilitate the sampling. Venous blood was collected by a 27 G needle into Multivette 600KE tubes containing EDTA (Sarstedt, Germany).
(§2) The plasma concentration profile and major PK parameters of different chemical structures were investigated following oral administration. Blood samples were taken from the tail vein with either the multiple or single sampling method.
(§3) For both methods, the same formulation per compound was used to ensure any differences in results were not due to formulation effects. Test compounds JNJ1 (a farnesyl transferase compound), JNJ2 (galantamine hydrobromide) and JNJ3 (a CRF antagonist) were formulated in demineralized water or a 10% hydroxypropyl- -β cyclodextrin (HP- - ? CD) solution at final concentrations of between 0.25 and 1 mg/ml. All formulations were stored at room temperature, protected from light and analysed quantitatively. Animals were orally dosed by gastric intubation using a volume of 10 ml/kg.
After dosing the compound, blood samples were taken at the desired time points. For the single sampling method, three animals per time point were sacrificed by decapitation and blood was collected by exsanguination into 10 ml B-D Sterile EDTA K3 Vacutainer tubes. For the multiple sampling technique 0.3 ml venous blood was repeatedly collected from the tail vein as described above. For each compound, 3 rats were used for a complete plasma concentration time profile. Plasma samples were analysed for the appropriate compound using individual qualified research LC-MS/MS methods as described in section 2.4.
For all compounds, individual calibration curves were constructed in blank EDTA rat plasma (covering the expected concentration range). Independent quality control samples (QC) were prepared in rat EDTA plasma at four concentration levels in duplicate, covering the entire calibration range. The study samples, calibration and QC samples were extracted using a generic sample preparation method. After sample preparation, the (reconstituted) residues were pipetted in polypropylene auto sampler vials and analysed using individual qualified research methods.
Aliquots of the residues were analysed using multiple reaction monitoring (MRM) liquid chromatography coupled to tandem mass spectrometry (LC-MS/MS) (API-3000 or 4000, Applied Biosystems, Canada). Chromatographic separation was obtained on commercial base deactivated C-18 columns of different brands, depending on the chromatographic behaviour of the compounds to be analysed. The mass spectrometers were operated in the TurbolonSpray TM mode (positive ion electrospray ionisation). For each compound the mass spectrometer was optimised to measure a selective parent-daughter transition. Integration of the chromatographic peaks was performed using the Analist software version 1.2 (Applied Biosystem, Canada). Final concentrations were calculated by interpolation from the calibration curves response, using a linear regression model. Both accuracy and precision were within expectations for all compounds, allowing accurate PK calculations
A limited PK analysis was performed using WinNonlin™ Professional (Version 3.3). For the single sampling method, a non-compartmental data analysis was carried out on the mean plasma concentration profile (n=3/time point). For the multiple sampling method, a non-compartmental data analysis was carried out on the plasma concentration time profiles obtained from each animal (n=3). […]

A short description of data set [2]: in vivo. The conditions noted are these: male, Sprague-Dawley, rat, single oral 5 mg/kg, Mean.
Source text: as §1, §2, §3
After dosing the compound, blood samples were taken at the desired time points. For the single sampling method, three animals per time point were sacrificed by decapitation and blood was collected by exsanguination into 10 ml B-D Sterile EDTA K3 Vacutainer tubes. For the multiple sampling technique 0.3 ml venous blood was repeatedly collected from the tail vein as described above. […] Plasma samples were analysed for the appropriate compound using individual qualified research LC-MS/MS methods as described in section 2.4.
For all compounds, individual calibration curves were constructed in blank EDTA rat plasma (covering the expected concentration range). […] After sample preparation, the (reconstituted) residues were pipetted in polypropylene auto sampler vials and analysed using individual qualified research methods.
Aliquots of the residues were analysed using multiple reaction monitoring (MRM) liquid chromatography coupled to tandem mass spectrometry (LC-MS/MS) (API-3000 or 4000, Applied Biosystems, Canada). Chromatographic separation was obtained on commercial base deactivated C-18 columns of different brands, depending on the chromatographic behaviour of the compounds to be analysed. […] Final concentrations were calculated by interpolation from the calibration curves response, using a linear regression model. […]
A limited PK analysis was performed using WinNonlin™ Professional (Version 3.3). […] Average values were then calculated to compare the multiple and the single sampling method. The PK parameters calculated were observed maximum plasma concentration (Cmax), the time to reach the maximum plasma concentration (Tmax), plasma half-life (t1/2) and exposure of the compound calculated by the area under the curve (AUClast and AUCinf). […]

Counter-ions that a name gives are not always drawn. Like-named read-outs stand apart in the source and are kept apart here.

Consider `COc1ccc2c3c1O[C@H]1C[C@@H](O)C=C[C@@]31CCN(C)C2` [JNJ2, galantamine hydrobromide], for which the AUC(0-inf) is 1180 ng·h/mL in the data set “in vivo [1]” (Mean, read-out: AUCinf (extrapolated exposure)); 1440 ng·h/mL in “in vivo [1]” (Rat 1, read-out: AUCinf (extrapolated exposure)); 1180 ng·h/mL in the data set “in vivo [1]” (Rat 2, read-out: AUCinf (extrapolated exposure)); 913 ng·h/mL in “in vivo [1]” (Rat 3, read-out: AUCinf (extrapolated exposure)); 1440 ng·h/mL in the data set “in vivo [2]” (read-out: AUCinf (extrapolated exposure)). Further, the AUC(0-t) in the data set “in vivo [1]” (Mean, read-out: AUClast (observed exposure)) is 1100 ng·h/mL; in the data set “in vivo [1]” (Rat 1, read-out: AUClast (observed exposure)), 1310 ng·h/mL; in the data set “in vivo [1]” (Rat 2, read-out: AUClast (observed exposure)), 1120 ng·h/mL; in the data set “in vivo [1]” (Rat 3, read-out: AUClast (observed exposure)), 866 ng·h/mL; in “in vivo [2]” (read-out: AUClast (observed exposure)), 1380 ng·h/mL. Besides, the Cmax turned out to be 113 ng/mL in “in vivo [1]” (Mean, read-out: Cmax (maximum plasma concentration)); 135 ng/mL in the data set “in vivo [1]” (Rat 1, read-out: Cmax (maximum plasma concentration)); 96.3 ng/mL in “in vivo [1]” (Rat 2, read-out: Cmax (maximum plasma concentration)); 108 ng/mL in the data set “in vivo [1]” (Rat 3, read-out: Cmax (maximum plasma concentration)); 155 ng/mL in the data set “in vivo [2]” (read-out: Cmax (maximum plasma concentration)). Moreover, the half-life is 5.75 h in the data set “in vivo [1]” (Mean, read-out: t1/2 (half life) (converted)); 6.81 h in “in vivo [1]” (Rat 1, read-out: t1/2 (half life) (converted)); 4.89 h in the data set “in vivo [1]” (Rat 2, read-out: t1/2 (half life) (converted)); 5.65 h in the data set “in vivo [1]” (Rat 3, read-out: t1/2 (half life) (converted)); 4.93 h in the data set “in vivo [2]” (read-out: t1/2 (half life) (converted)).
